Where “and” joins values, the source holds several entries; their conditions need not be identical. Equal values may be shown once. Read-outs that look alike come from different tables or passages of the source.

The values that follow come from patent US8440814B2, “Derivatives of cyclodextrins, process for their preparation and their use in particular for solubilizing pharmacologically active substances” (Centre National de la Recherche Scientifique, priority 2003, dated 2013).

Data set [1] addresses concanavalin A (ConA) lectin (Canavalia ensiformis, UniProt P02866). In kind it is binding. Here is the method: The affinity of the thioureidocysteaminyl-cyclodextrins of the invention for specific membrane lectins was evaluated in vitro following the ELLA (Enzyme-Linked Lectin Assay) protocol. […] 2002, 102, pp. 555-578. This technique measures the capacity of a soluble mono- or oligosaccharide ligand to inhibit the association between a complementary lectin and another reference ligand fixed to a plastic support microplate.
The IC50 values are inversely proportional to the respective affinities.
The cells of a microtitre plate (Nunc-Immuno™ plates, MaxiSorp™) are loaded with 100 μL of a stock solution of yeast mannan (Sigma, 10 μg·mL^−1) in a saline phosphate buffer solution (PBS; pH 7.3 containing Ca^2+ 0.1 mM and Mn^2+ 0.1 mM) for one night at ambient temperature. The cells are washed (3×300 μL) with a buffer solution containing 0.05% (v/v) of Tween 20 (PBST). This washing protocol is repeated after each incubation during the test. A bovine serum albumin solution (BSA, 1%) in PBS (150 μL/cell) is then added to the cells followed by incubation for 1 hour at 37° C., then washed.
In order to determine the optimal lectin concentration for inhibition studies, 100 μL of a series of concanavalin A solutions marked with radish peroxidase of 10^−1 to 10^−5 mg·mL^−1 in PBS is added to the cells loaded with mannan, and treated as indicated above. After incubation at 37° C. for 1 hour, the plates are washed (PBST) and a solution (50 μL) of the diammonium salt of 2,2′-azinobis(3-ethylbenzothiazoline-6-sulphonic) acid (ABTS, 1 mg in 4 mL) in citrate buffer (0.2 M, pH 4.0 with 0.015% hydrogen peroxide) is added. The reaction is stopped after 20 minutes by adding 50 μL/cell of sulphuric acid 1 M and the absorbances are measured at 415 nm using an ELISA reader. The control cells contained citrate-phosphate buffer.
In a series of experiments ConA marked with radish peroxidase in an appropriate concentration as indicated above (60 μL/cell) is added to the solutions of each compound (60 μL/cell) in PBS sequentially diluted twice, in a Nunclon™ (Delta) microtitre plate which is incubated at 37° C. for 1 hour. The solutions (100 μL/cell) are then transferred onto a microtitre plate loaded with mannan and treated as indicated above, which is then incubated at 37° C. for 1 hour. The cells are washed (PBST) and the ABTS solution (50 μL/cell) is added. After 20 minutes, the reaction is stopped (sulphuric acid) and the absorbances are measured. The percentage of inhibition is calculated with the formula: […]

A short description of data set [2]: solubilization of Taxotere in water by inclusion in the cyclodextrin derivative. In kind it is physicochemical. The note with it: 50 mmol·L^−1 of compound in sterile water; for solubility of the Taxotere in a solution of the compound: stirred at 70° C., stays in solution at ambient temperature. The source says: These inclusion complexes can be prepared for example by adding to a solution or a suspension of the compound of the invention of formula (I) the pharmacologically active molecule in solution or in the pure state. The inclusion complex thus formed can be isolated by freeze-drying.
In the case of the compounds of the taxol family, such as Taxotere®, it is also possible to disperse this product in the pure state in a sterile solution of a compound according to the invention.
Starting with Taxotere in the pure state, 2.1 mg ([…]) of this product is dispersed in 1 mL of a solution containing 50 mmol·L^−1 of compound No. 1 in sterile water, then the suspension obtained is stirred at 70° C. until a clear solution is obtained which indicates the complexing of the Taxotere.

A short description of a further data set: solubility in water. In kind it is physicochemical.
The conditions of data set [3]: as described in WO 95/19994; cited from earlier work.

Broadly, the IC50 is the point on the concentration scale where inhibition reaches its midpoint. A lower IC50 goes with inhibition by little substance. Take `OC[C@H]1O[C@H](NC(=S)NCCSC[C@H]2O[C@@H]3O[C@H]4[C@H](O)[C@@H](O)[C@@H](O[C@H]5[C@H](O)[C@@H](O)[C@@H](O[C@H]6[C@H](O)[C@@H](O)[C@@H](O[C@H]7[C@H](O)[C@@H](O)[C@@H](O[C@H]8[C@H](O)[C@@H](O)[C@@H](O[C@H]9[C@H](O)[C@@H](O)[C@@H](O[C@H]2[C@H](O)[C@H]3O)O[C@@H]9CSCCNC(=S)N[C@H]2O[C@H](CO)[C@@H](O)[C@H](O)[C@@H]2O)O[C@@H]8CSCCNC(=S)N[C@H]2O[C@H](CO)[C@@H](O)[C@H](O)[C@@H]2O)O[C@@H]7CSCCNC(=S)N[C@H]2O[C@H](CO)[C@@H](O)[C@H](O)[C@@H]2O)O[C@@H]6CSCCNC(=S)N[C@H]2O[C@H](CO)[C@@H](O)[C@H](O)[C@@H]2O)O[C@@H]5CSCCNC(=S)N[C@H]2O[C@H](CO)[C@@H](O)[C@H](O)[C@@H]2O)O[C@@H]4CSCCNC(=S)N[C@H]2O[C@H](CO)[C@@H](O)[C@H](O)[C@@H]2O)[C@@H](O)[C@@H](O)[C@@H]1O` [Compound No. 2]: in data set [1], the IC50 stood at 175 µM, the Relative affinity is 4.9 and the Relative molar affinity stood at 0.7.
Regarding `Cl.Cl.Cl.Cl.Cl.Cl.Cl.NCCSC[C@H]1O[C@@H]2O[C@H]3[C@H](O)[C@@H](O)[C@@H](O[C@H]4[C@H](O)[C@@H](O)[C@@H](O[C@H]5[C@H](O)[C@@H](O)[C@@H](O[C@H]6[C@H](O)[C@@H](O)[C@@H](O[C@H]7[C@H](O)[C@@H](O)[C@@H](O[C@H]8[C@H](O)[C@@H](O)[C@@H](O[C@H]1[C@H](O)[C@H]2O)O[C@@H]8CSCCN)O[C@@H]7CSCCN)O[C@@H]6CSCCN)O[C@@H]5CSCCN)O[C@@H]4CSCCN)O[C@@H]3CSCCN` [Compound No. 1, heptakis[6-S-(2-aminoethyl-6-thio)]cyclomalto heptaose heptahydrochloride], in data set [2], the “increase in the solubility of the Taxotere versus absence of cyclodextrin” value is recorded as about 525 times and the “solubility of the Taxotere in a solution of the compound” value turned out to be 2100 µg/mL. Also, the solubility in water in “solubility in water” is 500 g·L^−1 and 323 mmol·L^−1.
In data set [1] (relative to Me-α-D-Glcp = 1), `COC1OC(CO)C(O)C(O)C1O` [Me-α-D-Glcp, methyl-α-D-glucopyranoside, reference compound] had a Relative affinity of 1 and a Relative molar affinity of 1.
Turning to “heptakis[6-S-[2-N′-[2-[5-(1-thio-α-D-manno pyranosyl)-2-oxapentyl]-2,2-bis[5-(1-thio-β-D-glucopyranosyl)-2-oxapentyl]ethyl]thioureido]ethyl-6-thio]cyclomaltoheptaose [Compound No. 6]”, in data set [1], the Relative affinity amounted to 48, the Relative molar affinity is listed as 6.9 and the “recognition by ConA (in words)” value was “not recognized by ConA”.
In data set [1], “heptakis[6-S-[2-N′-[2,2-bis[5-(1-thio-α-D-mannopyranosyl)-2-oxapentyl]-2-[5-(1-thio-β-D-glucopyranosyl)-2-oxapentyl]ethyl]thioureido]ethylthio]cyclomaltoheptaose [Compound No. 7]” had a Relative affinity of 67 and a Relative molar affinity of 4.8.
As for “heptakis[6-S-[2-N′-[2,2,2-tris[5-(1-thio-α-D-mannopyranosyl)-2-oxapentyl]ethyl]thioureido]ethyl-6-thio]cyclomaltoheptaose [Compound No. 4]”, in data set [1], the Relative affinity was 173 and the Relative molar affinity turned out to be 8.2. In data set [2], the “increase in the solubility of the Taxotere versus absence of cyclodextrin” value is given as about 500 times and the “solubility of the Taxotere in a solution of the compound” value was found to be 2000 µg/mL.
With `OCC1OC(NC(=S)NCC2OC3OC4C(CNC(=S)NC5OC(CO)C(O)C(O)C5O)OC(OC5C(CNC(=S)NC6OC(CO)C(O)C(O)C6O)OC(OC6C(CNC(=S)NC7OC(CO)C(O)C(O)C7O)OC(OC7C(CNC(=S)NC8OC(CO)C(O)C(O)C8O)OC(OC8C(CNC(=S)NC9OC(CO)C(O)C(O)C9O)OC(OC9C(CNC(=S)NC%10OC(CO)C(O)C(O)C%10O)OC(OC2C(O)C3O)C(O)C9O)C(O)C8O)C(O)C7O)C(O)C6O)C(O)C5O)C(O)C4O)C(O)C(O)C1O` [heptakis(6-deoxy-6-α-D-mannopyranosylthioureido)cyclomaltoheptaose, reference compound], in data set [1] (175 µM), the “inhibition of the association between concanavalin A and yeast mannan” value came to 8%.
Regarding “6^I-S-α-maltosyl-6^I-thiocyclomaltoheptaose”, the “solubility in water of Taxotere on adding the cyclodextrin derivative to its aqueous suspension” value in data set [3] is recorded as “up to 6.5 g/L”.
In data set [1], `OC[C@H]1O[C@H](OCC(CO[C@H]2O[C@H](CO)[C@@H](O)[C@H](O)[C@@H]2O)(CO[C@H]2O[C@H](CO)[C@@H](O)[C@H](O)[C@@H]2O)NC(=S)NCCSC[C@H]2O[C@@H]3O[C@H]4[C@H](O)[C@@H](O)[C@@H](O[C@H]5[C@H](O)[C@@H](O)[C@@H](O[C@H]6[C@H](O)[C@@H](O)[C@@H](O[C@H]7[C@H](O)[C@@H](O)[C@@H](O[C@H]8[C@H](O)[C@@H](O)[C@@H](O[C@H]9[C@H](O)[C@@H](O)[C@@H](O[C@H]2[C@H](O)[C@H]3O)O[C@@H]9CSCCNC(=S)NC(CO[C@H]2O[C@H](CO)[C@@H](O)[C@H](O)[C@@H]2O)(CO[C@H]2O[C@H](CO)[C@@H](O)[C@H](O)[C@@H]2O)CO[C@H]2O[C@H](CO)[C@@H](O)[C@H](O)[C@@H]2O)O[C@@H]8CSCCNC(=S)NC(CO[C@H]2O[C@H](CO)[C@@H](O)[C@H](O)[C@@H]2O)(CO[C@H]2O[C@H](CO)[C@@H](O)[C@H](O)[C@@H]2O)CO[C@H]2O[C@H](CO)[C@@H](O)[C@H](O)[C@@H]2O)O[C@@H]7CSCCNC(=S)NC(CO[C@H]2O[C@H](CO)[C@@H](O)[C@H](O)[C@@H]2O)(CO[C@H]2O[C@H](CO)[C@@H](O)[C@H](O)[C@@H]2O)CO[C@H]2O[C@H](CO)[C@@H](O)[C@H](O)[C@@H]2O)O[C@@H]6CSCCNC(=S)NC(CO[C@H]2O[C@H](CO)[C@@H](O)[C@H](O)[C@@H]2O)(CO[C@H]2O[C@H](CO)[C@@H](O)[C@H](O)[C@@H]2O)CO[C@H]2O[C@H](CO)[C@@H](O)[C@H](O)[C@@H]2O)O[C@@H]5CSCCNC(=S)NC(CO[C@H]2O[C@H](CO)[C@@H](O)[C@H](O)[C@@H]2O)(CO[C@H]2O[C@H](CO)[C@@H](O)[C@H](O)[C@@H]2O)CO[C@H]2O[C@H](CO)[C@@H](O)[C@H](O)[C@@H]2O)O[C@@H]4CSCCNC(=S)NC(CO[C@H]2O[C@H](CO)[C@@H](O)[C@H](O)[C@@H]2O)(CO[C@H]2O[C@H](CO)[C@@H](O)[C@H](O)[C@@H]2O)CO[C@H]2O[C@H](CO)[C@@H](O)[C@H](O)[C@@H]2O)[C@@H](O)[C@@H](O)[C@@H]1O` [Compound No. 3, heptakis[6-S-[2-N′-tris(α-D-mannopyranosyloxymethyl)methylthioureido]ethyl-6-thio]cyclomaltoheptaose] showed a Relative affinity of 41 and a Relative molar affinity of 2.0.
